Data as given in US20250032460A1, “METHODS OF TREATING NEUROLOGICAL DISORDERS” (MapLight Therapeutics, Inc., priority 2021, published 2025).

Key:
[1] = tested on: Compound 1 induced salivation; assay: Fesoterodine dose-response antagonistic effect on Compound 1 induced salivation in anaesthetized rats; type: in vivo, Sprague Dawley rats
Procedure: An in vivo primary pharmacology study evaluating the fesoterodine fumarate dose-response antagonistic effect on Compound 1 induced salivation in anaesthetized male Sprague Dawley rats was conducted. […] Intravenous fesoterodine doses were administered at […]. Fesoterodine was dosed 10 minutes prior to dosage of Compound 1. All animals were normal with no observed abnormality detected in clinical signs or behavior. Salivation was measured by using oral dry swab in anesthetized rats with the calculated difference between the dry swab weight and the wet swab weight indicating the weight of saliva produced. Samples were collected post-dosing for one hour at 10-minute intervals.

[2] = Clinical observations during 7-day oral dosing in beagle dogs; settings: for Clinical Observation: Group 2: fesoterodine fumarate 3 mg/kg/day PO, individual dog
[3] = tested on: salivation; assay: Single ascending dose study: salivation (pharmacodynamics); type: in vivo, healthy adult volunteers; settings: Group 2: 8 mg fesoterodine fumarate 4 hours prior to 40 mg Compound 1, vs placebo pre-treatment (FIG. 2)
Procedure: MTD was established at the dose which produced mild to moderate cholinergic adverse effects. Cholinergic effects were monitored for each dose, including pupillometry and salivation.
Group 2 evaluated tolerability of Compound 1 at Group 1 MTD with or without fesoterodine fumarate co-administration. Subjects received 8 mg of fesoterodine fumarate tablet or matched placebo tablet 4 hours prior to administration of 40 mg of Compound 1.

[4] = Fesoterodine 0.0078 mg/mL IV 10 min prior to Compound 1 (1.5 mg/kg) IV
[5] = Fesoterodine 0.0156 mg/mL IV 10 min prior to Compound 1 (1.5 mg/kg) IV
[6] = Fesoterodine 0.0312 mg/mL IV 10 min prior to Compound 1 (1.5 mg/kg) IV
[7] = Fesoterodine 0.0625 mg/mL IV 10 min prior to Compound 1 (1.5 mg/kg) IV
[8] = Fesoterodine 0.125 mg/mL IV 10 min prior to Compound 1 (1.5 mg/kg) IV
[9] = Fesoterodine 0.25 mg/mL IV 10 min prior to Compound 1 (1.5 mg/kg) IV
[10] = Fesoterodine 0.5 mg/mL IV 10 min prior to Compound 1 (1.5 mg/kg) IV

Structure (SMILES): CC(C)C(=O)Oc1ccc(CO)cc1[C@H](CCN(C(C)C)C(C)C)c1ccccc1 [Fesoterodine, fesoterodine]
- Salivation (mg) (mean value), 10 min [1, 4]: 347.49 mg
- Salivation (mg) (mean value), 20 min [1, 4]: 90.03 mg
- Salivation (mg) (mean value), 30 min [1, 4]: 26.31 mg
- Salivation (mg) (mean value), 40 min [1, 4]: 10.29 mg
- Salivation (mg) (mean value), 50 min [1, 4]: 9.96 mg
- Salivation (mg) (mean value), 60 min [1, 4]: 7.74 mg
- Salivation (mg) (mean value), Total [1, 4]: 491.83 mg
- Salivation (mg) (mean value), 10 min [1, 5]: 163.43 mg
- Salivation (mg) (mean value), 20 min [1, 5]: 69.8 mg
- Salivation (mg) (mean value), 30 min [1, 5]: 30.58 mg
- Salivation (mg) (mean value), 40 min [1, 5]: 16.26 mg
- Salivation (mg) (mean value), 50 min [1, 5]: 11.66 mg
- Salivation (mg) (mean value), 60 min [1, 5]: 5.71 mg
- Salivation (mg) (mean value), Total [1, 5]: 297.45 mg
- Salivation (mg) (mean value), 10 min [1, 6]: 95.37 mg
- Salivation (mg) (mean value), 20 min [1, 6]: 61.86 mg
- Salivation (mg) (mean value), 30 min [1, 6]: 29.68 mg
- Salivation (mg) (mean value), 40 min [1, 6]: 8.31 mg
- Salivation (mg) (mean value), 50 min [1, 6]: 8.78 mg
- Salivation (mg) (mean value), 60 min [1, 6]: 6.64 mg
- Salivation (mg) (mean value), Total [1, 6]: 210.64 mg
- Salivation (mg) (mean value), 10 min [1, 7]: 66.8 mg
- Salivation (mg) (mean value), 20 min [1, 7]: 27.58 mg
- Salivation (mg) (mean value), 30 min [1, 7]: 12.89 mg
- Salivation (mg) (mean value), 40 min [1, 7]: 9.18 mg
- Salivation (mg) (mean value), 50 min [1, 7]: 6.56 mg
- Salivation (mg) (mean value), 60 min [1, 7]: 2.45 mg
- Salivation (mg) (mean value), Total [1, 7]: 125.47 mg
- Salivation (mg) (mean value), 10 min [1, 8]: 45.22 mg
- Salivation (mg) (mean value), 20 min [1, 8]: 21.91 mg
- Salivation (mg) (mean value), 30 min [1, 8]: 7.85 mg
- Salivation (mg) (mean value), 40 min [1, 8]: 5.06 mg
- Salivation (mg) (mean value), 50 min [1, 8]: 4.73 mg
- Salivation (mg) (mean value), 60 min [1, 8]: 3.5 mg
- Salivation (mg) (mean value), Total [1, 8]: 88.27 mg
- Salivation (mg) (mean value), 10 min [1, 9]: 7 mg
- Salivation (mg) (mean value), 20 min [1, 9]: 3.13 mg
- Salivation (mg) (mean value), 30 min [1, 9]: 3.17 mg
- Salivation (mg) (mean value), 40 min [1, 9]: 2.15 mg
- Salivation (mg) (mean value), 50 min [1, 9]: 2.49 mg
- Salivation (mg) (mean value), 60 min [1, 9]: 1.37 mg
- Salivation (mg) (mean value), Total [1, 9]: 19.31 mg
- Salivation (mg) (mean value), 10 min [1, 10]: 7.23 mg
- Salivation (mg) (mean value), 20 min [1, 10]: 2.83 mg
- Salivation (mg) (mean value), 30 min [1, 10]: 1.21 mg
- Salivation (mg) (mean value), 40 min [1, 10]: 4.11 mg
- Salivation (mg) (mean value), 50 min [1, 10]: 2.5 mg
- Salivation (mg) (mean value), 60 min [1, 10]: 1.8 mg
- Salivation (mg) (mean value), Total [1, 10]: 19.69 mg
- Fesoterodine effect with Compound 1 on salivation ([1]; Fesoterodine 0.0078-0.5 mg/mL IV prior to Compound 1): significant decrease of salivation in a consistent dose-responsive manner
- peripheral side effects observed after dosing ([2]; Group 1 Compound 1 1.5 mg/kg/day PO alone, Group 3 with fesoterodine fumarate 3 mg/kg/day PO, 7 days): substantially reduced the peripheral effects
- Clinical Observation ([2]; 7 day period): none
- Clinical Observation ([2]; day 1): For D2001, miosis was found 1 hr 10 min after dosing on day 1. 2 hr
- effect of fesoterodine pre-treatment on the increase in salivation post Compound 1 dosing ([3]; listed as fesoterodine): nearly abolished both subjective reports of hypersalivation and the objective increase in saliva volume
- effect of fesoterodine pre-treatment on the increase in salivation post Compound 1 dosing ([3]; listed as fesoterodine fumarate): not observed
